The structures appear in SMILES notation.

Assay type in all cases: cell-based
For assay [1], the system named is Trichophyton mentagrophytes NBRC 5466. The assay is described as follows: MIC measurement by CLSI disk method, Trichophyton mentagrophytes NBRC 5466. Conditions: for Inhibition zone: at the MIC amount per disk of the same line, mean of longest and shortest lengths of area without growth; for MIC concentration: disk method, Glucose Peptone agar, 27 ± 1° C., one week. The method, then:
(§1) The followings were used as test microorganisms: Staphylococcus aureus NBRC 12732, Aspergillus niger NBRC 105649, and Trichophyton mentagrophytes NBRC 5466. Measurements were performed in accordance with the disk method as defined by CLSI (Clinical and Laboratory Standards Institute). A cryopreserved strain was applied onto a test-bacterium preculture medium, and precultured under predetermined conditions. A grown colony was suspended in a test-bacterium culture medium, and cultured under predetermined conditions, and then added to a test-bacterium preparation liquid to adjust the number of cells to about 107-8 CFU/mL. Further, the prepared test-bacterium liquid was subjected to 10-times serial dilution, and cultured under predetermined conditions, and the number of cells was then counted. [table] Each compound was dissolved in methanol to 1,000 μg/mL, which was used as a sample stock solution. Otsuka distilled water in an amount of 0.75 mL was added to 0.75 mL of the sample stock solution to give a volume of 500 μg/mL. This two-fold dilution was repeated in a similar way. A total of 10 test-substance dilution series was prepared so that the concentrations of the test substance were each 1000, 500, 250, 125, 63, 31, 16, 8, 4, and 2 μg/mL. A test-bacterium liquid was uniformly spread over a corresponding sensitivity measurement agar medium in a square petri dish using a swab, and disks were placed on the medium. At this time, the distance between disks was set to 24 mm or more. A test-substance diluted liquid in an amount of 50 μL was dropped on a disk. The amount of a test substance per disk was 50, 25, 12.5, 6.3, 3.1, 1.6, 0.8, 0.4, 0.2, or 0.1 μg. Each sensitivity measurement agar medium was cultured under conditions shown in Table 1 above, and the diameter of an inhibition zone where bacterial growth was not observed was measured in mm with calipers. As control, methanol was dropped on a disk instead of a test substance.

Assay [2] relates to Aspergillus niger NBRC 105649. As to the kind of experiment: MIC measurement by CLSI disk method, Aspergillus niger NBRC 105649. Conditions: for Inhibition zone: at the MIC amount per disk, mean of longest and shortest lengths of area without growth; for MIC concentration: disk method, Glucose Peptone agar, 27 ± 1° C., one week. The method, then: as §1
In assay [3] the test system is Staphylococcus aureus NBRC 12732. The assay is described as follows: MIC measurement by CLSI disk method, Staphylococcus aureus NBRC 12732. As to conditions: for Inhibition zone: at the MIC amount per disk, mean of longest and shortest lengths of area without growth; for MIC concentration: disk method, Mueller-Hinton II agar, 36 ± 1° C., 18 to 24 hours. The method, then:
as §1

Assay [4] concerns Staphylococcus aureus (MRSA) IID1677. As to the kind of experiment: MIC measurement by CLSI disk method, MRSA IID 1677. Conditions: for Inhibition zone: at the MIC amount per disk, mean of longest and shortest lengths of area without growth; for MIC: disk method, bacterial liquid 7.3 × 10^7 CFU/mL, Mueller-Hinton II agar, 35 ± 1° C., 24 h. The method, then:
(§2) The followings were used as test microorganisms: Staphylococcus aureus (MRSA) IID 1677, Staphylococcus aureus (MRSA) ATCC 43300, Enterococcus faecalis (VRE) ATCC 51575, and Enterococcus faecalis ATCC 29212.
(§3) Measurements were performed in accordance with the disk method as defined by CLSI (Clinical and Laboratory Standards Institute).
(§4) A cryopreserved strain was applied onto a test-bacterium culture medium, and precultured under predetermined conditions (Table 3). A grown colony was again precultured (Table 3), and then suspended in a test-bacterium preparation liquid, and filtered through absorbent cotton. The number of cells was then adjusted to about 107-8 CFU/mL. This was used for the tests. Further, the prepared test-bacterium liquid was subjected to 10-times serial dilution, and cultured under predetermined conditions (Table 4), and the number of cells was then counted.
(§5) Each of the compounds according to the present invention was dissolved in methanol (Wako Pure Chemical Industries, Ltd., Special grade, Content: 99.8%) to 1000 µg/mL. This was used as a sample stock solution. Otsuka distilled water in an amount of 0.8 mL was added to 0.8 mL of the sample stock solution such that the concentration of each of the compounds according to the present invention was 500 μg/mL. This two-fold dilution was repeated in a similar way. A total of 10 test-substance dilution series were prepared so that the concentrations of the test substance were each 1000, 500, 250, 125, 63, 31, 16, 8, 4, and 2 μg/mL.
(§6) A test-bacterium liquid was uniformly spread over a sensitivity measurement agar medium in a square petri dish (230×80×14.5 mm, Eiken Chemical Co., Ltd.) using a swab, and φ8-mm thick disks (for antibiotics assay, Advantec Co., Ltd.) were placed on the medium. At this time, the distance between disks was set to 24 mm or more. A test-substance diluted liquid in an amount of 50 μL was dropped on a disk. The amount of a test substance per disk was 50, 25, 12.5, 6.3, 3.1, 1.6, 0.8, 0.4, 0.2, or 0.1 μg. A sensitivity measurement agar medium was cultured under predetermined conditions (Table 4), and the width of an inhibition zone where bacterial growth was not observed was measured in mm with calipers. As control, methanol was dropped on a disk instead of a test substance.

The subject of assay [5] is Staphylococcus aureus (MRSA) ATCC43300. As to the kind of experiment: MIC measurement by CLSI disk method, MRSA ATCC 43300. Conditions: for Inhibition zone: at the MIC amount per disk, mean of longest and shortest lengths of area without growth; for MIC: disk method, bacterial liquid 1.0 × 10^8 CFU/mL, Mueller-Hinton II agar, 35 ± 1° C., 24 h. The protocol: as §2, §3, §4, §5, §6

Assay [6] relates to Enterococcus faecalis (VRE) ATCC51575. As to the kind of experiment: MIC measurement by CLSI disk method, VRE ATCC 51575. Conditions: for Inhibition zone: at the MIC amount per disk, mean of longest and shortest lengths of area without growth; for MIC: disk method, bacterial liquid 1.9 × 10^8 CFU/mL, Mueller-Hinton II agar, 35 ± 1° C., 24 h. The method, then: as §2, §3, §4, §5, §6

The test system of assay [7] is Enterococcus faecalis ATCC29212. As to the kind of experiment: MIC measurement by CLSI disk method, Enterococcus faecalis ATCC 29212. As to conditions: for Inhibition zone: at the MIC amount per disk of the same line, mean of longest and shortest lengths of area without growth; for MIC: disk method, bacterial liquid 9.6 × 10^7 CFU/mL, Mueller-Hinton II agar, 35 ± 1° C., 24 h. The method, then:
as §2, §3, §4, §5, §6

For `C[C@@H]1C/C=C/CC/C=C/CCCCCCCCCCCC[C@@H](OP(=O)([O-])OCC[N+](C)(C)C)CC(=O)O1` [Compound A], the Inhibition zone amounted to 2.5 mm in assay [1], 3.7 mm in assay [2] and 2 mm in assay [3]. The MIC concentration in assay [1] is listed as 25 μg/disk; in assay [2], 50 μg/disk; in assay [3], 50 μg/disk.

Turning to `C[C@H]1C/C=C/CC/C=C\CCCCCCCCCCCC[C@@H](OP(=O)([O-])OCC[N+](C)(C)C)CC(=O)O1` [Compound H, (3R,16Z,20E,23S)-(−)-Eushearilide], the Inhibition zone in assay [4] was 3.0 mm; in assay [5], 2.7 mm; in assay [6], 5.5 mm; in assay [7] it was 3.3 mm. For the same compound, the MIC in assay [4], in assay [5], in assay [6] and in assay [7] was 50 μg/disk in each case.

Take `C[C@H]1C/C=C/CC/C=C/CCCCCCCCCCCC[C@@H](OP(=O)([O-])OCC[N+](C)(C)C)CC(=O)O1` [Compound F, (3R,16E,20E,23S)-(−)-Eushearilide]: the Inhibition zone in assay [4] is on record as 3.1 mm; in assay [5] it was 2.4 mm; in assay [6], 5.8 mm; in assay [7], 7.7 mm. Besides, the MIC in assay [4], in assay [5], in assay [6] and in assay [7] was 50 μg/disk throughout.

Consider `C[C@@H]1C/C=C/CC/C=C\CCCCCCCCCCCC[C@H](OP(=O)([O-])OCC[N+](C)(C)C)CC(=O)O1` [Compound C], for which the Inhibition zone worked out at 5.1 mm in assay [1], 1 mm in assay [2] and 1.5 mm in assay [3]. Moreover, the MIC concentration is 12.5 μg/disk in assay [1], 50 μg/disk in assay [2] and 50 μg/disk in assay [3].

Turning to `C[C@H]1C/C=C/CC/C=C/CCCCCCCCCCCC[C@H](OP(=O)([O-])OCC[N+](C)(C)C)CC(=O)O1` [Compound D, (3S,16E,20E,23S)-(+)-Eushearilide], the Inhibition zone in assay [4] stood at 1.4 mm; in assay [5] it was 3.0 mm; in assay [6], 4.7 mm; in assay [7] it was 2.2 mm. Further, the MIC was determined as 50 μg/disk in assay [4], 50 μg/disk in assay [5], 50 μg/disk in assay [6] and 25 μg/disk in assay [7].

Regarding `C[C@@H]1C/C=C/CC/C=C/CCCCCCCCCCCC[C@H](OP(=O)([O-])OCC[N+](C)(C)C)CC(=O)O1` [Compound E, (3S,16E,20E,23R)-(+)-Eushearilide], the Inhibition zone in assay [4] was found to be 2.2 mm; in assay [5], 3.3 mm; in assay [6], 6.9 mm; in assay [7] it was 0.0 mm. Further, the MIC is listed as 50 μg/disk in assay [4], 50 μg/disk in assay [5], 50 μg/disk in assay [6] and above 50 μg/disk in assay [7].

With `C[C@@H]1C/C=C/CC/C=C\CCCCCCCCCCCC[C@@H](OP(=O)([O-])OCC[N+](C)(C)C)CC(=O)O1` [Compound B], the Inhibition zone is reported as 3.9 mm in assay [1], 3.7 mm in assay [2] and 2.2 mm in assay [3]. Moreover, the MIC concentration in assay [1] is listed as 12.5 μg/disk; in assay [2] it was 50 μg/disk; in assay [3], 50 μg/disk.

For the compound `C[C@H]1C/C=C/CC/C=C\CCCCCCCCCCCC[C@H](OP(=O)([O-])OCC[N+](C)(C)C)CC(=O)O1` [Compound G, (3S,16Z,20E,23S)-(+)-Eushearilide], the Inhibition zone in assay [4] stood at 2.3 mm; in assay [5], 0.9 mm; in assay [6], 6.7 mm; in assay [7], 8.4 mm. Further, the MIC in assay [4], in assay [5], in assay [6] and in assay [7] was 50 μg/disk each time.

The values are drawn from patent publication US10696703B2, “Method for producing eushearlilides” (TOKYO UNIVERSITY OF SCIENCE FOUNDATION, priority 2014, dated 2020).
